What all share (format): functional
The subject of assay [1] is Escherichia coli. Nature of the assay: Antibacterial activity against Escherichia coli CCUGT incubated for 18 to 24 hrs by CLSI based microdilution broth method. As to conditions: Escherichia coli, CCUGT; time 18-24 hrs; read-out: MIC.
The test system of assay [2] is Acinetobacter baumannii. Nature of the assay: Antibacterial activity against Acinetobacter baumannii ATCC 17978 incubated for 18 to 24 hrs by CLSI based microdilution broth method. As to conditions: Acinetobacter baumannii, ATCC 17978; time 18-24 hrs. In general terms: In broth dilution the organism is exposed to a series of concentrations in liquid medium.
Assay [3] deals with Bacillus subtilis. Nature of the assay: Antibacterial activity against Bacillus subtilis ATCC 6633 incubated for 18 to 24 hrs by CLSI based microdilution broth method. As to conditions: time 18-24 hrs.
The test system of assay [4] is Staphylococcus aureus. Nature of the assay: Antibacterial activity against Staphylococcus aureus ATCC 25923 incubated for 18 to 24 hrs by CLSI based microdilution broth method. As to conditions: time 18-24 hrs.
The subject of assay [5] is Enterococcus faecalis. Nature of the assay: Antibacterial activity against Enterococcus faecalis ATCC 19433 incubated for 18 to 24 hrs by CLSI based microdilution broth method. As to conditions: time 18-24 hrs.
The test system of assay [6] is Streptococcus pyogenes. Nature of the assay: Antibacterial activity against Streptococcus pyogenes ATCC 12344 incubated for 18 to 24 hrs by CLSI based microdilution broth method. As to conditions: time 18-24 hrs.
The subject of assay [7] is Pseudomonas aeruginosa. Nature of the assay: Antibacterial activity against Pseudomonas aeruginosa ATCC 27853 incubated for 18 to 24 hrs by CLSI based microdilution broth method. As to conditions: Pseudomonas aeruginosa, ATCC 27853; time 18-24 hrs.
Assay [8] concerns Klebsiella pneumoniae. Nature of the assay: Antibacterial activity against Klebsiella pneumoniae ATCC 13833 incubated for 18 to 24 hrs by CLSI based microdilution broth method. As to conditions: Klebsiella pneumoniae, ATCC 13833; time 18-24 hrs; read-out: MIC.

In brackets after ≈: the same amount, converted by molar mass.

As usually defined, the MIC is the smallest concentration in the dilution series that meets the test's criterion for growth inhibition. Take `N=C(N)NCCCCCCCN(CCCCCCCNC(=N)NCC1CC1)C(=O)N(CCCCCCNC(=N)N)CCCCCCNC(=N)NCC1CC1.O=C(O)C(F)(F)F`: the MIC in assay [1] came out at 16 µg/mL; in assay [2], 32 µg/mL; in assay [3], 2 µg/mL; in assay [4] it was 1 µg/mL; in assay [5], 4 µg/mL; in assay [6], 4 µg/mL. Also, the MIC is 32 µg/mL in assay [7] and 8 µg/mL in assay [8].
In the case of `CC(C)NC(=N)NCCCCCCCCN(CCCCCCCCNC(=N)N)C(=O)N(CCCCCCCCNC(=N)N)CCCCCCCCNC(=N)NC(C)C.O=C(O)C(F)(F)F`, the MIC in assay [1] stood at 0.5 µg/mL; in assay [2], 8 µg/mL; in assay [3], 0.5 µg/mL; in assay [4], 0.25 µg/mL; in assay [5] it was 0.5 µg/mL; in assay [6], 0.5 µg/mL. In addition, the figures for the MIC in assay [7] and in assay [8] were 8 µg/mL and 1 µg/mL, respectively.
Turning to `C/C=C/CNC(=N)NCCCCCCCCN(CCCCCCCCNC(=N)N)C(=O)N(CCCCCCCCNC(=N)N)CCCCCCCCNC(=N)NC/C=C/C.O=C(O)C(F)(F)F`, the MIC in assay [1] worked out at 2 µg/mL; in assay [2], 8 µg/mL; in assay [3], 2 µg/mL; in assay [4] it was 1 µg/mL; in assay [5], 2 µg/mL; in assay [6], 2 µg/mL. The MIC came to 16 µg/mL in assay [7] and 2 µg/mL in assay [8].
For the compound `CC(C)CNC(=N)NCCCCCCCCN(CCCCCCCCNC(=N)N)C(=O)N(CCCCCCCCNC(=N)N)CCCCCCCCNC(=N)NCC(C)C.O=C(O)C(F)(F)F`, the MIC in assay [1] turned out to be 4 µg/mL; in assay [2], 8 µg/mL; in assay [3], 2 µg/mL; in assay [4], 2 µg/mL; in assay [5], 4 µg/mL; in assay [6], 4 µg/mL. Moreover, the MIC in assay [7] was 16 µg/mL; in assay [8], 4 µg/mL.
As to `CCCCCCCCCC(=O)N[C@@H](Cc1c[nH]c2ccccc12)C(=O)N[C@H](CC(N)=O)C(=O)N[C@@H](CC(=O)O)C(=O)N[C@@H]1C(=O)NCC(=O)N[C@@H](CCCN)C(=O)N[C@@H](CC(=O)O)C(=O)N[C@H](C)C(=O)N[C@@H](CC(=O)O)C(=O)NCC(=O)N[C@H](CO)C(=O)N[C@@H]([C@H](C)CC(=O)O)C(=O)N[C@@H](CC(=O)c2ccccc2N)C(=O)O[C@@H]1C`, the MIC in assay [3] worked out at 1 µg/mL (≈ 0.617 µM); in assay [4] it was 0.12 µg/mL (≈ 0.074 µM); in assay [5] it was 1 µg/mL (≈ 0.617 µM); in assay [6], 0.5 µg/mL (≈ 0.309 µM).
In the case of `CN[C@H](CC(C)C)C(=O)N[C@H]1C(=O)N[C@@H](CC(N)=O)C(=O)N[C@H]2C(=O)N[C@H]3C(=O)N[C@H](C(=O)N[C@H](C(=O)O)c4cc(O)cc(O)c4-c4cc3ccc4O)[C@H](O)c3ccc(c(Cl)c3)Oc3cc2cc(c3O[C@@H]2O[C@H](CO)[C@@H](O)[C@H](O)[C@H]2O[C@H]2C[C@](C)(N)[C@H](O)[C@H](C)O2)Oc2ccc(cc2Cl)[C@H]1O` [VANCOMYCIN], the MIC came out at 0.5 µg/mL (≈ 0.345 µM) in assay [3], 1 µg/mL (≈ 0.69 µM) in assay [5] and 1 µg/mL (≈ 0.69 µM) in assay [6].
Turning to `N=C(N)NCCCCCCCN(CCCCCCCNC(=N)NCC1CC1)C(=O)N(CCCCCCCNC(=N)N)CCCCCCCNC(=N)NCC1CC1.O=C(O)C(F)(F)F`, the MIC in assay [1] amounted to 8 µg/mL; in assay [2] it was 32 µg/mL; in assay [3] it was 2 µg/mL; in assay [4], 2 µg/mL; in assay [5], 8 µg/mL; in assay [6], 4 µg/mL. For the same compound, the MIC in assay [7] was 32 µg/mL; in assay [8] it was 8 µg/mL.
`O=C(O)C(F)(F)F.[N-]=[N+]=NCCCCCCCCN(CCCCCCCCNC(=N)NCC1CC1)C(=O)N(CCCCCCCCN=[N+]=[N-])CCCCCCCCNC(=N)NCC1CC1`: the MIC in assay [1] turned out to be 16 µg/mL; in assay [2], 64 µg/mL; in assay [3], 32 µg/mL; in assay [4], 4 µg/mL; in assay [5], 8 µg/mL; in assay [6], 8 µg/mL. The MIC in assay [7] stood at 128 µg/mL; in assay [8], 16 µg/mL.
Regarding `N=C(N)NCCCCCCCCN(CCCCCCCCNC(=N)NCC1CC1)C(=O)N(CCCCCCCCNC(=N)N)CCCCCCNC(=N)NCC1CC1.O=C(O)C(F)(F)F`, the MIC in assay [1] is 8 µg/mL; in assay [2], 64 µg/mL; in assay [3], 4 µg/mL; in assay [4], 1 µg/mL; in assay [5], 4 µg/mL; in assay [6], 4 µg/mL. Moreover, the results for the MIC in assay [7] and in assay [8] were 128 µg/mL and 4 µg/mL, respectively.
With `CC(C)=CCC/C(C)=C/CNC(=N)NCCCCCCCCN(CCCCCCCCNC(=N)N)C(=O)N(CCCCCCCCNC(=N)N)CCCCCCCCNC(=N)NC/C=C(\C)CCC=C(C)C.O=C(O)C(F)(F)F`, the MIC was found to be 2 µg/mL in assay [1]; 4 µg/mL in assay [2]; 2 µg/mL in assay [3]; 1 µg/mL in assay [4]; 2 µg/mL in assay [5]; 2 µg/mL in assay [6]. In addition, the figures for the MIC in assay [7] and in assay [8] were 8 µg/mL and 2 µg/mL, respectively.
With `CSCCNC(=N)NCCCCCCCCN(CCCCCCCCNC(=N)N)C(=O)N(CCCCCCCCNC(=N)N)CCCCCCCCNC(=N)NCCSC.O=C(O)C(F)(F)F`, the MIC in assay [1] stood at 2 µg/mL; in assay [2] it was 16 µg/mL; in assay [3], 1 µg/mL; in assay [4], 0.5 µg/mL; in assay [5], 2 µg/mL; in assay [6], 1 µg/mL. Further, the MIC was 32 µg/mL in assay [7] and 4 µg/mL in assay [8].
`N=C(N)NCCCCCCCCN(CCCCCCCCNC(=N)NC1CCCC1)C(=O)N(CCCCCCCCNC(=N)N)CCCCCCCCNC(=N)NC1CCCC1.O=C(O)C(F)(F)F`: the MIC stood at 1 µg/mL in assay [1]; 4 µg/mL in assay [2]; 1 µg/mL in assay [3]; 0.25 µg/mL in assay [4]; 1 µg/mL in assay [5]; 1 µg/mL in assay [6]. In addition, the MIC in assay [7] was found to be 8 µg/mL; in assay [8] it was 1 µg/mL.
As to `CNC(=O)NCCCCCCCCN(CCCCCCCCNC(=N)NCC1CC1)C(=O)N(CCCCCCCCNC(=N)NCC1CC1)CCCCCCCCNC(=O)NC.O=C(O)C(F)(F)F`, the MIC was determined as 16 µg/mL in assay [1]; 64 µg/mL in assay [2]; 4 µg/mL in assay [3]; 4 µg/mL in assay [4]; 8 µg/mL in assay [5]; 4 µg/mL in assay [6]. Besides, the MIC in assay [7] is 128 µg/mL; in assay [8], 16 µg/mL.
Turning to `N=C(N)NCCCCCCN(CCCCCCCCNC(=N)NCC1CC1)C(=O)N(CCCCCCCCNC(=N)NCC1CC1)CCCCCCNC(=N)N.O=C(O)C(F)(F)F`, the MIC in assay [1] was 2 µg/mL; in assay [2], 32 µg/mL; in assay [3], 1 µg/mL; in assay [4] it was 0.25 µg/mL; in assay [5] it was 4 µg/mL; in assay [6] it was 1 µg/mL. Further, the MIC in assay [7] stood at 32 µg/mL; in assay [8] it was 2 µg/mL.
`N=C(N)NCCCCCCCCN(CCCCCCCCNC(=N)NCCC12CC3CC(CC(C3)C1)C2)C(=O)N(CCCCCCCCNC(=N)N)CCCCCCCCNC(=N)NCCC12CC3CC(CC(C3)C1)C2.O=C(O)C(F)(F)F`: the MIC amounted to 32 µg/mL in assay [1]; 64 µg/mL in assay [2]; 16 µg/mL in assay [3]; 8 µg/mL in assay [4]; 16 µg/mL in assay [5]; 16 µg/mL in assay [6]. In addition, the MIC in assay [7] is 128 µg/mL; in assay [8], 32 µg/mL.
As to `CNC(=S)NCCCCCCCCN(CCCCCCCCNC(=N)NCC1CC1)C(=O)N(CCCCCCCCNC(=N)NCC1CC1)CCCCCCCCNC(=S)NC.O=C(O)C(F)(F)F`, the MIC came out at 8 µg/mL in assay [1]; 128 µg/mL in assay [2]; 4 µg/mL in assay [3]; 2 µg/mL in assay [4]; 4 µg/mL in assay [5]; 4 µg/mL in assay [6]. The MIC in assay [7] amounted to 64 µg/mL; in assay [8], 16 µg/mL.
`N=C(N)NCCCCCCCCN(CCCCCCNC(=N)NCC1CC1)C(=O)N(CCCCCCCCNC(=N)N)CCCCCCNC(=N)NCC1CC1.O=C(O)C(F)(F)F`: the MIC stood at 4 µg/mL in assay [1]; 64 µg/mL in assay [2]; 1 µg/mL in assay [3]; 0.25 µg/mL in assay [4]; 8 µg/mL in assay [5]; 1 µg/mL in assay [6]. Besides, the values for the MIC in assay [7] and in assay [8] were 128 µg/mL and 4 µg/mL, respectively.
Turning to `N=C(N)NCCCCCCCCCN(CCCCCCCCCNC(=N)NCC1CC1)C(=O)N(CCCCCCCCCNC(=N)N)CCCCCCCCCNC(=N)NCC1CC1.O=C(O)C(F)(F)F`, the MIC in assay [1] was found to be 8 µg/mL; in assay [2] it was 8 µg/mL; in assay [3], 4 µg/mL; in assay [4], 4 µg/mL; in assay [5], 4 µg/mL; in assay [6] it was 2 µg/mL. The MIC in assay [7] and in assay [8] was 16 µg/mL each time.
For the compound `CCCCNC(=N)NCCCCCCCCN(CCCCCCCCNC(=N)N)C(=O)N(CCCCCCCCNC(=N)N)CCCCCCCCNC(=N)NCCCC.O=C(O)C(F)(F)F`, the MIC in assay [1] stood at 2 µg/mL; in assay [2], 4 µg/mL; in assay [3], 1 µg/mL; in assay [4] it was 1 µg/mL; in assay [5] it was 2 µg/mL; in assay [6] it was 2 µg/mL. Moreover, the MIC turned out to be 8 µg/mL in assay [7] and 2 µg/mL in assay [8].
As to `N=C(N)NCCCCCCCCN(CCCCCCCCNC(=N)NCCN1CCOCC1)C(=O)N(CCCCCCCCNC(=N)N)CCCCCCCCNC(=N)NCCN1CCOCC1.O=C(O)C(F)(F)F`, the MIC in assay [1] was found to be 4 µg/mL; in assay [2], 32 µg/mL; in assay [3] it was 1 µg/mL; in assay [4], 1 µg/mL; in assay [5], 2 µg/mL; in assay [6], 1 µg/mL. Further, the values for the MIC in assay [7] and in assay [8] were 64 µg/mL and 4 µg/mL, respectively.

The values are drawn from ChEMBL document CHEMBL5500347, “An update on antibacterial AlkylGuanidino Ureas: Design of new derivatives, synergism with colistin and data analysis of the whole library” (2024).
